Laboratory results as given in ChEMBL document CHEMBL6103645, “Modular Synthesis of Bioactive Selenoheterocycles for Efficient Cancer Therapy via Electrochemical Selenylation/Cyclization” (J Med Chem, 2025).
The source made the active and inactive calls. No cut-off for these calls is given here.

What was measured:
[1] = Antiproliferative activity against rat PA-III cells incubated for 24 hrs by MTT assay; format: functional, cell-based
[2] = tested on: NCI-H460; test: Anti-tumor activity against human NCI-H460 cells assessed as cell viability incubated for 48 hrs by CCK-8 assay; format: functional, cell-based; details: NCI-H460, 48 h
[3] = tested on: NCI-H460; test: Inhibition of epithelial mesenchymal transition in human NCI-H460 cells assessed as decrease in N-cadherin protein expression by Western blotting analysis; format: functional, cell-based
[4] = tested on: NCI-H460; test: Inhibition of epithelial mesenchymal transition in human NCI-H460 cells assessed as increase in E-cadherin protein expression by Western blotting analysis; format: functional, cell-based
[5] = tested on: NCI-H460; test: Induction of apoptosis in human NCI-H460 cells assessed as apoptosis rate at 500 nM incubated for 24 hrs by annexin V-FITC/PI staining based flow cytometry analysis relative to control; format: functional
[6] = tested on: NCI-H460; test: Upregulation of gamma-H2AX expression in human NCI-H460 cells by Western blot analysis; format: functional, cell-based
[7] = tested on: NCI-H460; test: Antitumor activity against human NCI-H460 cells xenografted in athymic nude mouse assessed as change in tumor weight at 10 mg/kg, iv administered every 2 days and measured after 2 weeks; format: functional, organism-based
[8] = tested on: NCI-H460; test: Antitumor activity against human NCI-H460 cells xenografted in athymic nude mouse assessed as change in tumor volume at 10 mg/kg, iv administered every 2 days and measured after 2 weeks; format: functional, organism-based
[9] = tested on: NCI-H460; test: Antitumor activity against human NCI-H460 cells xenografted in athymic nude mouse assessed as tumor growth inhibition at 10 mg/kg, iv administered every 2 days and measured after 2 weeks; format: functional; details: NCI-H460, 336 h, read-out: TGI
[10] = Toxicity in male athymic nude mouse assessed as alveolar wall hyperplasia at 10 mg/kg, iv administered every 2 days and measured after 2 weeks by H and E staining based analysis; format: organism-based; details: in vivo, 336 h
[11] = tested on: PC-3M; test: Antiproliferative activity against human PC-3M cells incubated for 24 hrs by MTT assay; format: functional, cell-based
[12] = tested on: HT-29; test: Anti-tumor activity against human HT-29 cells assessed as cell viability incubated for 48 hrs by CCK-8 assay; format: functional, cell-based
[13] = tested on: MCF7; test: Anti-tumor activity against human MCF7 cells assessed as cell viability incubated for 48 hrs by CCK-8 assay; format: functional, cell-based
[14] = tested on: HeLa; test: Anti-tumor activity against human HeLa cells assessed as cell viability incubated for 48 hrs by CCK-8 assay; format: functional, cell-based
[15] = tested on: NCI-H460; test: Inhibition of colony formation in human NCI-H460 cells assessed as reduction in colony formation rate upto 12.5 uM incubated for 14 days by crystal violet staining based analysis; format: functional, cell-based; details: time 14.0 day
[16] = tested on: NCI-H460; test: Anti-migratory activity against human NCI-H460 cells assessed as inhibition of cell migration at 500 nM measured for 48 hrs by wound healing assay; format: functional, cell-based
[17] = tested on: NCI-H460; test: Inhibition of cell invasion in human NCI-H460 cells assessed as decrease in number of invading cells at 500 nM incubated for 48 hrs by transwell assay; format: functional, cell-based
[18] = tested on: NCI-H460; test: Induction of apoptosis in human NCI-H460 cells assessed as increase in BAX level at 500 nM incubated for 24 hrs by Western blot analysis; format: functional, cell-based
[19] = tested on: NCI-H460; test: Induction of apoptosis in human NCI-H460 cells assessed as increase in caspase-3 level at 500 nM incubated for 24 hrs by Western blot analysis; format: functional, cell-based
[20] = tested on: NCI-H460; test: Induction of apoptosis in human NCI-H460 cells assessed as downregulation of Bcl2 expression at 500 nM incubated for 24 hrs by Western blot analysis; format: functional, cell-based
[21] = tested on: NCI-H460; test: Induction of DNA damage in human NCI-H460 cells assessed as increase in gammaH2AX positive cells by DAPI staining based confocal laser scanning microscopic analysis; format: functional, cell-based
[22] = tested on: NCI-H460; test: Induction of DNA damage in human NCI-H460 cells assessed as increase in gammaH2AX positive cells by immunofluorescence analysis; format: functional, cell-based
[23] = Hemolytic activity in BALB/c mouse Red blood cells assessed as effect on morphological structure at 10 to 100 uM incubated for 2 hrs; format: toxicity, cell-based; details: erythrocyte, dose 10-100 µM
[24] = Hemolytic activity in BALB/c mouse Red blood cells assessed as hemolysis at 10 to 100 uM incubated for 2 hrs; format: toxicity, cell-based, Erythrocyte; details: dose 10-100 µM, read-out: Activity

SMILES | IC50 [1] [µM] | IC50 [2] [µM] | inhibition [4] | Activity [5] [%] | Activity [6] | Activity [12] | Activity [13] | Activity [14] | inhibition [15] | Activity [16] | inhibition [17] | N-cadherin expression decrease (qualitative activity) [3] | Activity [18] | Activity [19] | Activity [20] | Activity [21] | Activity [22] | Activity [23] | hemolysis at 2 h, 100 µM [24] [%] | further results
N#C[Se]Cc1cc(-c2ccccc2)n(-c2ccc(S(N)(=O)=O)cc2)n1 | 5 |  |  |  |  |  |  |  |  |  |  |  |  |  |  |  |  |  |  | 
CC[C@@]1(O)C(=O)OCc2c1cc1n(c2=O)Cc2cc3ccccc3nc2-1 [CAMPTOTHECIN] |  | 2.46 | Active | 39.1 | Active |  |  |  |  |  |  |  |  |  |  |  |  |  |  | inhibition [3]: Active; Activity [7]: Active; Activity [8]: Active; inhibition in vivo at 10 mg/kg [9]: 66%; Activity [10]: Toxic
Cc1ccc(-c2cc(C(F)(F)F)nn2-c2ccc(S(N)(=O)=O)cc2)cc1 [CELECOXIB] | > 20 |  |  |  |  |  |  |  |  |  |  |  |  |  |  |  |  |  |  | IC50 [11]: > 20 µM
COc1ccc([Se]c2c(-c3ccccc3)ncc3ccccc23)cc1 |  | 6.39 | Active | 20.8 | Active | inactive | inactive | inactive | Active | Active | Active | Active | Active | Active | Active | Active | Active | Non-toxic | < 1 | 
COc1ccc([Se]c2c(-c3ccccc3)ncc3ccc(OC)cc23)cc1 |  | 5.9 | Active | 31.5 | Active | inactive | inactive | inactive | Active | Active | Active | Active | Active | Active | Active | Active | Active | Non-toxic | < 1 | 
